These results are taken from patent US20070134725A1, “METHOD TO PREDICT RISK OF BPH PROGRESSION” (Baylor College of Medicine, priority 2004, published 2007).

SMILES strings stand for the structures.

Assay [1] relates to male subjects with BPH. The settings on record: cited from earlier work.
The test system of assay [2] is male subjects with BPH. As to the kind of experiment: Phase III placebo-controlled studies of dutasteride in men with BPH (ARIA 3001, 3002, 3003); Cox regression nomogram for AUR/SI within 2 years. Format: in vivo, human. The text has this:
The use of single parameters to predict the risk of BPH progression or to determine the relative reduction potentially gained with 5ARI therapy is not optimal. Nomograms are prediction tools optimized for accuracy that utilize multiple parameters to predict specific outcomes. The objective of this study was to develop a prediction model, or nomogram, that would predict the probability that a person with BPH would experience AUR or require surgical intervention (SI) within two years, using data from the recently completed Phase III studies of dutasteride versus placebo in men with BPH (Roehrborn et al. 2002).
Data from three two-year multicenter, placebo-controlled, double-blind studies evaluating dutasteride 0.5 mg/day (n=2,167) or placebo (n=2,158) in male subjects with BPH were utilized to develop a nomogram. […] Most of the 4,325 subjects randomly assigned to receive either dutasteride or placebo completed 2 years of treatment (70% and 67%, respectively).
Subjects were characterized at baseline by a number of parameters, including AUA symptom index (AUA-SI) score, BPH impact index (BII) score, prostate volume, prostate specific antigen (PSA) level, maximum urinary flow rate (Qmax), and prior use of selective α1 blockers. Cox proportional hazards regression was used to relate these baseline variables to the future probability of developing AUR or requiring surgical intervention within 2 years. The nomogram was internally validated with bootstrapping, a re-sampling technique, to assess its discrimination and calibration. Discrimination was quantified as the concordance index, which is rated from 0.5 to 1.00. Calibration was assessed visually, by plotting observed proportions against predicted probabilities, again using bootstrapping to reduce over-fit bias.
With these benefits in mind, a nomogram was constructed to predict the risk of BPH progression using data from a phase III pivotal trial (ARIA 3001, 3002, 3003) used to establish the safety and efficacy of dutasteride prior to FDA approval. For each individual predictive parameter, points are awarded by drawing a perpendicular line to the point scale along the top of the nomogram. After all points are added, a perpendicular line is drawn from the bottom, total points scale to the line below, indicating the 2 year probability of a patient's developing retention or requiring BPH-related surgery within two years. Note that the use of dutasteride (versus placebo) leads to a total point score reduced by approximately 20 to 25 points, which translates to a 50% relative risk reduction across the entire range of total points for any patient. […] Thus, a 50% relative risk reduction over two years translates into about 13 to 14% absolute risk reduction over this very short time frame, with a much greater benefit likely experienced over time.

In assay [3] the test system is men with LUTS and BPH. As to the kind of experiment: MTOPS trial of finasteride and doxazosin, alone or together, in men with BPH; Cox/competing risks models. Format: in vivo, human. The settings on record: for Hazard Ratio: multivariable Cox model; for risk of AUR and/or SI in treated patients / risk of symptom progression in treated patients: within 4 years, result in words.
Text: Medical Therapy of Prostatic Symptoms (MTOPS) is a clinical research study sponsored by the National Institutes of Health (NIH). The study tested whether the oral drugs finasteride (Proscar®) and doxazosin (Cardura®), alone or together, can further delay or prevent further prostate growth in men with BPH.
MTOPS is the largest and longest study to test whether the drugs can stop noncancerous prostate growth. Seventeen U.S. medical centers recruited […] men diagnosed with symptomatic BPH between December 1995 and March 1998. The study doctors continued to follow these men through November 2001 on a quarterly basis. In addition to the clinical progression of BPH, MTOPS included evaluations of prostate volume by ultrasound, prostate histopathobiology, quality of life and urodynamics. (Funding by NIDDK (UO1-DK-46472), 1992-2002; IND 43,564; http://www.bsc.gwu.edu/mtops/; McConnell et al., 2003).)
Herein described is the development of a nomogram similar to that shown in Examples 1 and 3 using data from the MTOPS study. In this double-blind, randomized, placebo-controlled trial, 3047 men with moderate-to-severe urinary symptoms and enlarged prostate glands were randomized to receive either 1) doxazosin+placebo; 2) finasteride+placebo; 3) doxazosin+finasteride; or 4) placebo+placebo for a minimum of four and a maximum of six years, with an average follow-up of five years. Complete data on outcomes were available for 3047 men and frozen sera was archived at baseline.
(§1) Intent-to-treat, competing risks methodology was employed to model the 3,047 men with LUTS and BPH randomized to the MTOPS trial, a 5 year, randomized, placebo-controlled study evaluating the efficacy and safety of BPH medical therapy. These men were characterized at baseline by a number of parameters, including patient age and race, AUA symptom index (AUA-SI), BPH Impact Index (BII), total prostate and TZ volume measured by ultrasound, total prostate specific antigen (PSA) level, maximum flow rate (Qmax) and post-void residual (PVR) urine volume. Cox proportional hazards regression was used to relate these baseline variables to their future probability of AUR/SI within 4 years. The nomogram was internally validated with bootstrapping to assess its discrimination and calibration. Discrimination was quantified as the concordance index (CI).
as §1, with “used” for “employed”, “(Qmax),” for “(Qmax)”, “reaching a symptom progression endpoint” for “AUR/SI”
Table 13 provides P values for a series of predictors, including BPSA levels, in a multivariate competing risks model for AUR and/or SI. BPSA is a novel serum marker for BPH, and independently predicts the risk of AUR and/or surgery in men with BPH. Thus, nomogram tools that incorporate BPSA levels may improve the ability to manage patients with BPH.

Assay [4] has as its system men with moderate-to-severe urinary symptoms and enlarged prostate glands. The settings on record: PLESS, 5 mg finasteride, four years; cited from earlier work.
Assay [5] relates to men with LUTS and BPH. The arrangement: Creatinine Rise, endpoint events: unit not given here. The settings on record: entire MTOPS cohort, number of events per treatment group; cited from earlier work.
Setting [6] is: dutasteride 0.5 mg/day vs placebo, over 24 months.
Where [7] appears, read: AUR/SI within 4 years, intent-to-treat, competing risks.
The mark [8] stands for this setting: symptom progression (4-point rise in AUA-SI) within 4 years.

Consider `C[C@]12C=CC(=O)N[C@@H]1CC[C@@H]1[C@@H]2CC[C@]2(C)[C@@H](C(=O)Nc3cc(C(F)(F)F)ccc3C(F)(F)F)CC[C@@H]12` [dutasteride], for which the “patients who had experienced AUR and/or surgical intervention at endpoint” value in assay [1] (at endpoint, 2-year studies) is on record as 3.5%. Moreover, in assay [1] (setting [6]), the “reduction in the need for BPH-related surgery” value was 48% and the “reduction in the risk of AUR” value is given as 57%. Also, the “relative risk reduction across the entire range of total points” value in assay [2] (2-year AUR/SI nomogram) was 50%. For the same molecule, in assay [2] (full multivariate Cox model, AUR or surgical intervention within 2 years, dutasteride vs placebo group), the “Hazard Ratio (95% CIs)” value is 0.50 (0.37, 0.66). In assay [2] (over two years, most severely affected patients (27% maximum risk)), this molecule registered an absolute risk reduction of 13 to 14%. Moreover, in assay [2] (use of dutasteride versus placebo, 2-year AUR/SI nomogram), the “reduction of nomogram total point score” value is recorded as 20 to 25 points. The “relative risk reduction of AUR and/or surgical intervention” value in assay [2] (vs placebo, at endpoint) came out at 50%.

On to `CC(C)(C)NC(=O)[C@H]1CC[C@H]2[C@@H]3CC[C@H]4NC(=O)C=C[C@]4(C)[C@H]3CC[C@]12C` [finasteride], for which the “Hazard Ratio” value in assay [3] (setting [7]) is given as 0.3506. In addition, in assay [3] (setting [8]), the “Hazard Ratio” value came to 0.6961. In addition, in assay [3], the “risk of AUR and/or SI in treated patients” value is recorded as “reduced risk of AUR and/or SI” and the “risk of symptom progression in treated patients” value was “significantly reduced risk of symptom progression”. In addition, in assay [4], the “incidence of BPH-related surgery” value is reported as 5%, the “incidence of precipitated AUR” value is reported as 2%, the “incidence of spontaneous AUR” value was 1% and the “overall incidence of AUR” value is given as 4%. In addition, in assay [5], the “AUA Rise, endpoint events” value is listed as 74; the “BPH Invasive Therapy, events” value was 15; the “Creatinine Rise, endpoint events” value is 0; the “Incontinence, endpoint events” value was 9. In addition, in assay [5], the “Retention, endpoint events” value is reported as 6; the Total endpoint events is reported as 89; the “UTI/urosepsis, endpoint events” value was 0.

Turning to `COc1cc2nc(N3CCN(C(=O)C4COc5ccccc5O4)CC3)nc(N)c2cc1OC` (stereo not shown) [doxazosin], the “Hazard Ratio” value in assay [3] (setting [7]) came to 0.7154. Moreover, the “Hazard Ratio” value in assay [3] (setting [8]) is 0.5278. In assay [3], the “risk of AUR and/or SI in treated patients” value is listed as “not” and the “risk of symptom progression in treated patients” value is “significantly reduced risk of symptom progression”. Also, in assay [5], the “AUA Rise, endpoint events” value is reported as 59; the “BPH Invasive Therapy, events” value was 41; the “Creatinine Rise, endpoint events” value is on record as 0; the “Incontinence, endpoint events” value is on record as 11. Moreover, in assay [5], the “Retention, endpoint events” value is listed as 13; the Total endpoint events was 85; the “UTI/urosepsis, endpoint events” value is 2.
